Experiment: in vitro
Conditions: human, hela cells, % viability
Work on `COc1ccc(S(=O)(=O)NCC(=O)O)cc1OC` [CBK034454] yielded a viability at 28.5 h, 10 µM of 96.2%. Work on `CC1=NN(C(=O)C2CC2)C(=O)C1Cc1ccc(F)cc1` (stereo not shown) [CBK083561] yielded a viability at 28.5 h, 10 µM of 89.9%. In the case of `O=C(NCc1ccco1)c1cnoc1-c1ccc(F)cc1` [CBK154960], the viability at 28.5 h, 10 µM is reported as 116%. Compound `CN(C)c1nc(N2CCOCC2)c(C#N)c(=O)o1` [CBK007447] has a viability at 28.5 h, 10 µM of 116%. Compound `CC(=O)N(C)c1nc(-c2cccc(N(C)C)c2)ccc1C(=O)NCCc1ccc(S(N)(=O)=O)cc1` [CBK076578] has a viability at 28.5 h, 10 µM of 88.8%. In the case of `O=C(Cc1ccsc1)N1CCCC1c1nc2ccccc2[nH]1` (stereo not shown) [CBK283740], the viability at 28.5 h, 10 µM is reported as 87.7%. Work on `Cc1ccc2ncnc(NCCCCCC(=O)O)c2c1` [CBK287256] yielded a viability at 28.5 h, 10 µM of 91.4%. `CCCc1[nH]nc(O)c1-c1ccc(OC)cc1` [CBK075135] gave a viability at 28.5 h, 10 µM of 96.1%. In the case of `Fc1ccc(OCCCN2CCC3(CC2)OCCc2c3[nH]c3ccccc23)cc1` [CBK107736], the viability at 28.5 h, 10 µM is reported as 77%. With `Clc1ncccc1OCCOc1ccccc1` [CBK003888] the viability at 28.5 h, 10 µM was 87.2%. With `Cn1c(COc2ccccc2)nnc1SCC(=O)c1ccc(-c2ccccc2)cc1` [CBK267426] the viability at 28.5 h, 10 µM was 87.9%. `C1CN=C(SCCCSC2=NCCCN2)NC1` [CBK278210B] showed a viability at 28.5 h, 10 µM of 110%. Compound `Cn1cc(CN2C3CCC(C3)[C@@H]2COc2ccc(F)cc2)cn1` (stereo partly shown) [CBK282257] has a viability at 28.5 h, 10 µM of 106%. In the case of `Cc1nn(CC(=O)C(C)(C)C)c(=O)c2cc3sccc3n12` [CBK284111], the viability at 28.5 h, 10 µM is reported as 87.2%. Work on `C=C(C)CN1CCN(C(=O)CSc2nccc3ccccc23)CC1` [CBK282712] yielded a viability at 28.5 h, 10 µM of 88.4%. Compound `CCCC(=O)c1ccc(S(=O)(=O)N2CCCN(Cc3c(-c4ccccc4)nc4sccn34)CC2)cc1` [CBK062912] has a viability at 28.5 h, 10 µM of 119%. `COc1ncc(-c2cccc(N(C)CCN(C)C)n2)c(OC)n1` [CBK037599] showed a viability at 28.5 h, 10 µM of 99.1%. Compound `Cc1cc(CN2CCN(CCc3ccccc3)CC2)no1` [CBK126426] has a viability at 28.5 h, 10 µM of 85.8%. In the case of `CCN1CCN(C(=O)CN(c2ccccc2)S(=O)(=O)N(C)C)CC1` [CBK268222], the viability at 28.5 h, 10 µM is reported as 113%. Work on `CCc1nnc(NS(=O)(=O)c2c(C)nn(C)c2Cl)s1` [CBK062180] yielded a viability at 28.5 h, 10 µM of 112%. Compound `COc1nccnc1OC1CCN(Cc2ccc([N+](=O)[O-])cc2)CC1` [CBK084245] has a viability at 28.5 h, 10 µM of 105%. `Cc1ccc2oc(-c3cc(NC(=S)NC(=O)c4ccc([N+](=O)[O-])cc4)ccc3O)nc2c1` [CBK263923] showed a viability at 28.5 h, 10 µM of 94.3%. `O=S(=O)(NC[C@H]1C[C@@H]2CC[N@]1C[C@@H]2CN1CCOCC1)c1cccs1` [CBK288759] showed a viability at 28.5 h, 10 µM of 90.7%. `Cn1c2c(c3ccccc31)CCOC21CCN(Cc2ccc(OC(F)F)cc2)CC1` [CBK039975] showed a viability at 28.5 h, 10 µM of 95.8%. For `CCCCNC(=O)CCCN(CC)CCC1=CC2(CCCC2)c2ccccc21` [CBK013232], the viability at 28.5 h, 10 µM was 91.7%. For `Cn1c(=O)n(CC(=O)NC2CC2)c2cccnc21` [CBK104297], the viability at 28.5 h, 10 µM was 98.7%. With `COc1cc(C=CC(=O)O)ccc1OCC(=O)N1CCN(CC(=O)NC(C)(C)C)CC1` [CBK296987] the viability at 28.5 h, 10 µM was 114%. With `COc1cc(C(=O)N2CCC3(CC2)CC(=O)c2cc(NC(C)=O)ccc2O3)nc2c(OC)cccc12` [CBK170664] the viability at 28.5 h, 10 µM was 122%. For `FC(F)(F)c1ccccc1NC(=S)Nc1ncn(Cc2ccc(Cl)c(Cl)c2)n1` [CBK267130], the viability at 28.5 h, 10 µM was 87.1%. For `CS(=O)(=O)N1CCN(c2ccccc2NC(=O)COc2ccccc2Cl)CC1` [CBK269250], the viability at 28.5 h, 10 µM was 103%. With `CN1Cc2ccccc2CC1C(=O)N1CCCC12CC=CC2` (stereo not shown) [CBK282838] the viability at 28.5 h, 10 µM was 81.3%. In the case of `Cc1oc(NC(=O)CN2CCN(c3cccc(Cl)c3)CC2)c(C#N)c1C` [CBK305906], the viability at 28.5 h, 10 µM is reported as 82.5%. In the case of `COC(=O)c1c(NC(=S)NCc2ccccn2)sc2c1CCC2` [CBK267090], the viability at 28.5 h, 10 µM is reported as 95.9%. For `Cc1cc(NC(=O)C2CCN(C(=O)c3c(F)cccc3F)CC2)no1` [CBK304359], the viability at 28.5 h, 10 µM was 95.9%. Compound `O=C(NCc1ccccc1OC1CCNC1)c1ccc(-c2cccc(C(F)(F)F)c2)o1` (stereo not shown) [CBK034151T] has a viability at 28.5 h, 10 µM of 101%. With `CCCC1C2C=CC(C2)C1/C=N/O` (stereo not shown) [CBK009671] the viability at 28.5 h, 10 µM was 83.4%. `Cc1nnc(SCC(=O)c2ccccc2)[nH]1` [CBK026287] showed a viability at 28.5 h, 10 µM of 99.5%. `CC(C)C(CCC(=O)Nc1ccc([N+](=O)[O-])cc1O)C(=O)O` (stereo not shown) [CBK268464] showed a viability at 28.5 h, 10 µM of 102%. Compound `CCn1c2cc(C)oc2c2cnn(CC(=O)N(C)C)c(=O)c21` [CBK284224] has a viability at 28.5 h, 10 µM of 83.4%. `COC(=O)Nc1ccc(S(=O)(=O)N2CCCC(C(=O)Nc3cccc(C(F)(F)F)c3)C2)cc1` (stereo not shown) [CBK265248] showed a viability at 28.5 h, 10 µM of 92.3%. `CCc1nc2ccc(C(=O)Nc3ccc4c(c3)OCC(=O)N4)cn2c1N(C)CC` [CBK145521] showed a viability at 28.5 h, 10 µM of 96.8%. In the case of `CCOC(=O)C1CCN(S(=O)(=O)c2cccs2)CC1` [CBK051137], the viability at 28.5 h, 10 µM is reported as 92.4%. Compound `CN(CC1(C)COC1)C(=O)C1CC(=O)N(C(C)(C)C)C1` (stereo not shown) [CBK281724] has a viability at 28.5 h, 10 µM of 112%. In the case of `NS(=O)(=O)c1ccc(CCNC(=O)Nc2ccc(Cl)c(Cl)c2)cc1` [CBK269133], the viability at 28.5 h, 10 µM is reported as 90.3%. For `CC(C)N1CC[C@H]2CN(C(=O)CCC(=O)O)CC[C@H]2CC1=O` [CBK288789], the viability at 28.5 h, 10 µM was 87.8%. `N#Cc1ccccc1NC(=O)NCCC1=CCCCC1` [CBK044365] showed a viability at 28.5 h, 10 µM of 95.1%. With `CC(C)(C)C(=O)NCCn1nc(-c2cccs2)ccc1=O` [CBK283839] the viability at 28.5 h, 10 µM was 103%. `O=C(CSc1nc(-c2ccco2)cc(C(F)(F)F)n1)Nc1ccc(C(=O)N2CCCCC2)cc1` [CBK266238] gave a viability at 28.5 h, 10 µM of 101%. With `CC(C(=O)NC1(C#N)CCCCC1)N1CCOC(c2nccs2)C1` (stereo not shown) [CBK305299] the viability at 28.5 h, 10 µM was 80.9%. `O=S(=O)(NCc1cccnc1)c1ccc(Cl)c2ccccc12` [CBK264008] showed a viability at 28.5 h, 10 µM of 89.5%. `CC(=O)c1ccc(S(=O)(=O)Nc2ccc(C)cc2)cc1` [CBK045380] showed a viability at 28.5 h, 10 µM of 108%. Compound `CCc1nc(CNC(=O)c2cc3cc(F)ccc3n2C)no1` [CBK281414] has a viability at 28.5 h, 10 µM of 93.6%. In the case of `CCCN(C)Cc1ccc(-c2cn(CC(=O)NCc3ccc(OCC(F)F)cc3)nn2)cc1` [CBK166365], the viability at 28.5 h, 10 µM is reported as 106%. `O=C(Nc1nccs1)c1ncn[nH]1` [CBK028821] showed a viability at 28.5 h, 10 µM of 102%. `COc1ccccc1OCC(=O)N1CCC2(CCNC2)C1` (stereo not shown) [CBK156703C] gave a viability at 28.5 h, 10 µM of 99.6%. Compound `Cc1cnn(CCC(=O)N2CCOC(c3nc(C(C)(C)C)n[nH]3)C2)c1` (stereo not shown) [CBK305336] has a viability at 28.5 h, 10 µM of 110%. With `O=C(NC1CCN(Cc2c(F)cccc2Cl)CC1)C1CCN(C(=O)OCc2ccccc2)CC1` [CBK074720] the viability at 28.5 h, 10 µM was 108%. Work on `O=C(O)CCC(=O)N1N=C(c2c(-c3ccccc3)c3cc(Br)ccc3[nH]c2=O)CC1c1ccc([N+](=O)[O-])cc1` (stereo not shown) [CBK267543] yielded a viability at 28.5 h, 10 µM of 104%. Compound `O=C(NCC1CCCN1)c1ccccc1Nc1cccc(C(F)(F)F)c1` (stereo not shown) [CBK115916C] has a viability at 28.5 h, 10 µM of 107%. `COCCSc1nnc(NS(=O)(=O)c2ccc(F)cc2)s1` [CBK144919] showed a viability at 28.5 h, 10 µM of 87.1%. For `CS(=O)(=O)Nc1ccc(C(=O)Nc2ccc(S(=O)(=O)N3CCCC3)cc2)cc1` [CBK268592], the viability at 28.5 h, 10 µM was 116%. `O=C1CCCC2=C1C(c1ccc(OCc3ccccc3)cc1)c1c([nH][nH]c1=O)N2` (stereo not shown) [CBK288149] gave a viability at 28.5 h, 10 µM of 92.1%. Work on `Cc1cc(Cl)c(OCCN2CCCCCC2)c(Br)c1` [CBK266049G] yielded a viability at 28.5 h, 10 µM of 91.7%. Compound `CSc1ccc(-c2nccnc2OCCC(C)C)cc1` [CBK106802] has a viability at 28.5 h, 10 µM of 113%.
